In ChEMBL document CHEMBL1128409, “Potent inhibitors of proteasome” (J Med Chem, 1995) one finds IC50 data, which are given here for 7 molecules.

Where a SMILES comes first, the peptide text is derived from it. The star is where a group is joined. MeOSuc = COC(=O)CCC(=O)*

For the assay, the target named is 20S proteasome. The experiment in a line: Compound was evaluated for inhibitory activity against 20S proteasome from human liver and brain. In kind it is subcellular.

The IC50 is the midpoint of a concentration-inhibition curve. Consider `COC(=O)CCCCCCCC(=O)N[C@H](CCC/N=C(\N)NS(=O)(=O)c1c(C)c(C)c2c(c1C)CCC(C)(C)O2)C(=O)NC(C=O)CC(C)C` (some centres not stated), for which the IC50 was greater than 3000 nM. With `CC(C)CC(C=O)NC(=O)C(CCC/N=C(\N)N[N+](=O)[O-])NC(=O)C(CCCCCCCCC#N)C1CCCC1` (configuration not stated), the IC50 was determined as 6 nM. The molecule `COC(=O)CCCCCCCC(=O)NC(CCC/N=C(\N)N[N+](=O)[O-])C(=O)NC(C=O)CC(C)C` (configuration not stated) had an IC50 of 40 nM. Molecule `COC(=O)CCCCCCCC(=O)NC(CCC/N=C(\N)NS(=O)(=O)c1c(C)cc(OC)c(C)c1C)C(=O)NC(C=O)CC(C)C` (configuration not stated) returned an IC50 of 95 nM. The molecule `CC(C)CC(C=O)NC(=O)C(CCC/N=C(\N)N[N+](=O)[O-])NC(=O)C(CCCCCCCCN1C(=O)c2ccccc2C1=O)C1CCCC1` (configuration not stated) had an IC50 of 2 nM.

`COC(=O)CCCCCCCC(=O)NC(CCC/N=C(\N)NS(=O)(=O)c1c(C)c(C)c2c(c1C)CCC(C)(C)O2)C(=O)NC(C=O)CC(C)C` (single isomer, unassigned) displayed an IC50 of 20 nM.

With `COC(=O)CCC(=O)N[C@@H](CCC(=O)O)C(=O)N[C@H](C(=O)N[C@@H](CCCCN)C(=O)N[C@@H](Cc1ccccc1)C(=O)O)C(C)C` (MeOSuc-EVKF-OH), the IC50 came out at 1000 nM.
